Test results published in patent US11485701B2, “Insect repellent compounds and compositions, and methods thereof” (Iowa State University Research Foundation, Inc., priority 2016, dated 2022).
“Also recorded” adds a separate entry of the source.

What was measured:
[1] = system: female Aedes aegypti (Orlando strain, 1952); test: Minimum effective dosage testing, human skin (treated cloth patch); type: in vivo
Description: The test mosquitoes were female Aedes aegypti (Orlando strain, 1952) from the colony maintained at United States Department of Agriculture-Agricultural Research Service-Center for Medical, Agricultural and Veterinary Entomology (USDA-ARS-CMAVE) in Gainesville, Fla. Pupae were obtained from the colony and newly emerged mosquitoes were maintained on 10% sugar water and kept in laboratory cages at an ambient temperature of 28±1° C. and RH of 35-60%. Host seeking behavior was pre-selected in nulliparous female mosquitoes aged 6-10 days, indicated by flight upwind towards a potential host, from stock cages using a hand-draw box and trapped in a collection trap.
After 500 (±10%) females were collected in the trap, they were transferred to a test cage (approximately 59,000 cm^3 with dimensions 45×37.5×35 cm) and allowed to acclimatize for 17.5 (±2.5) min before testing was initiated. Just prior to the experiment, the pieces of treated cloth are removed from the vials and stapled onto card stock tabs (5×3 cm). Each piece of the cards and the assembly were hung on a drying rack using masking tape for 3-5 min. Participants in the study used latex gloves to pull a nylon stocking over their arm. A Velcro™-sealed vinyl sleeve was then placed over the forearm. […] The purpose of the nylon stocking was to produce a barrier between the dried cloth and the skin, thereby avoiding direct contact of chemical to skin. The dried cloth assembly was affixed over the opening in the sleeve and held in place with masking tape. Participants then inserted their arm with the sleeve and patch into a screened cage that contained female Ae. Aegypti mosquitoes. Tests were conducted on each control or treated patch for 1 min. A control patch (acetone solvent only, then dried) was tested prior to the start of experiments and evaluation of the same untreated control patch after every 10 tests. If 5 landings were not received on the control patch in 30 s, then tests were discontinued for 60 min. At the conclusion of testing the control patch was tested again. If five landings were not received within 30 s, the data for the replicate was discarded. When testing a patch treated with a candidate repellent, if approximately 1% or 5 mosquito bites were received during this one minute test, this compound was considered to have failed, i.e., was not repellent at that concentration. If a treated cloth patch received 0-4 bites within a minute, then it was considered as passed, i.e., repellent at that concentration of the test compound. The median concentration patch was tested in the first round and treated patches were then tested successively at higher or lower concentrations depending upon whether the previous patch failed or passed, respectively.
The time interval between each tested patch was <90 seconds until 10 successive tests had been conducted. If appreciable, mortality had occurred during testing, the number of knocked down mosquitoes are estimated and additional female mosquitoes are added to the cage to keep the available mosquitoes at approximately 500. The estimate of the MED was the lowest concentration that passed for each candidate. Observed MED values for each candidate compound were averaged across participants and reported as a mean MED±standard error.

[2] = system: Aedes aegypti; test: Human skin testing, biting deterrence (BioGents test cage, treated nylon sleeve); type: in vivo
Description: Female mosquitoes (Aedes aegypti) were reared according to the standard protocol at a temperature of 27.5±1° C., a relative humidity of 65-80% and a 12:12 hour photo period. The light period (450 Lux) was set from 7:00 to 19:00. After hatching from the eggs, larvae were kept in a water basin (30×30×10 cm) filled with a 1:1 mixture of tap- and deionized water with low oxygen content and fed with fish food flakes (Tetra Min®). Pupae were transferred to a cage (40×30×20 cm) provided with sugar solution (10% dextrose). Mosquitoes at an age of 5 to 10 days post-emergence were used for behavioral tests.
BioGents (BG) test cages are an in-house improvement of conventional test cages for the evaluation of mosquito repellents (Obermayr et al., “A Novel Test Cage with an Air Ventilation System as an Alternative to Conventional Cages for the Efficacy Testing of Mosquito Repellents,” J. Med. Entomol. 47:1116-22 (2010) which is hereby incorporated by reference in its entirety). The cages have a volume of 27.000 cm^3 (41×41×16 cm). Four sides of a cage are made of acrylic glass, the floor is made of metal sheet, and the rear side is covered by a gauze sleeve. The floor sheet is equipped with a test window (size: 56 cm^2; 14.8×3.8 cm) for the exposure of the treated skin. In between tests, BG cages are connected to a ventilation system that provides clean, warm, and humid air (26±1° C., 65±5% R.H.) to remove remaining host odours and repellent volatiles from the air inside the cage. In the presented study, the ventilation system was not applied as mosquitoes were only tested once and then discarded. Each treated sleeve was tested on a fresh batch of mosquitoes. Each cage was filled with populations of 30 mosquitoes, lured out of their rearing cages by a natural stimulus (human hand) to ensure that only host-seeking females are used for the repellent tests
All formulations have been stored at 4° C. Prior to testing, stock formulations were diluted v/v to final concentrations of 10% in 200 proof ethanol. […] For each test formulations, 2 pieces were prepared—one was treated, while the other one remained untreated and was worn between skin and treated nylon sleeve.
From each test formulation 5 ml were filled into 25 ml glass flasks; immediately afterwards stockings were folded into the flasks and pushed into the liquid formulation with a clean spatula. Flasks were sealed and incubated in the fridge overnight. On the consecutive day, one of the treated nylon pieces was removed from the flasks and left to dry on a clean paper towel for at least 10 minutes or until the ethanol had evaporated. The drying process was conducted at 27° C. and 65% to 80%. One untreated nylon sleeve was attached to the forearm followed by the treated sleeve.
Prior to a repellent efficacy test, the biting activity of the test mosquitoes was verified with the other, untreated forearm of a volunteer (wearing an untreated nylon sleeve). To keep biting pressure on the untreated skin low, a modified spacer covered with fine mosquito netting was used in control tests. Mosquitoes were still attracted to the skin odours and landed on the net, however they were not able to reach the skin and pierce it. A minimum of 10 landings had to be observed in 30 seconds during tests with Ae. aegypti. In case of lowered biting activities, 5 to 10 new mosquitoes were added to the cage or 30 new mosquitoes are used. […] The number of landing and biting mosquitoes was recorded. […]

[3] = treated cloth patch, 1 min test, high dose 1.5 mg/cm^2
[4] = nylon treated with 10% in ethanol, max 2 min exposure, one volunteer

CC(C)=CCCC(C)CC(=O)OCC(C)O (stereo not drawn) [Compound 2144, 2-hydroxypropyl citronellate]
Minimum effective dosage [1]: 0.055 mg/cm²
Proportion to DEET ([1]; average MED relative to DEET): 2.053
Minimum effective dosage testing, result in words ([1]; in vivo): performed similarly to DEET
Minimum Effective Dosage, Average ([1]; mean across subjects): 0.039 mg/cm^2
Minimum Effective Dosage, Subject 1 [1, 3]: 0.047 mg/cm^2
Minimum Effective Dosage, Subject 2 [1, 3]: 0.047 mg/cm^2
Minimum Effective Dosage, Subject 3 [1, 3]: 0.023 mg/cm^2
Observations ([2]; nylon treated with 10%): Repellent effects were clearly noticeable; also recorded: Visible repelient effects
Bites ([2]; nylon treated with 10% in ethanol, bites per 120 sec): 0/120 sec
Contacts: Landing (mosquitoes sits for >3 sec) [2, 4]: 2
Contacts: Short touch-down [2, 4]: 18
bite reduction ([2]; nylon treated with 10%, versus untreated nylon): (100% bite reduction)
